From patent publication US20220380763A1, “NUCLEIC ACID DELIVERY ENHANCER” (NATIONAL UNIVERSITY CORPORATION KOCHI UNIVERSITY, priority 2019, published 2022)

Tests used:
S2-013 cells = assay: Matrigel invasion assay; format: cell-based, human; conditions: unmodified siRNA added with folic acid-cationic oligopeptide complex (Fol-Dab8A and Fol-Dab8B); versus control siRNA, P<0.05
Procedure: Each of the scrambled control siRNA, SNORA18 siRNA, NUP85 siRNA, WASF2 siRNA, and SNORA22 siRNA (all used in Example 5) with the folic acid-cationic oligopeptide complex added was added to the culture solution of S2-013 cells, and Matrigel invasion assay was performed after 48 hours.
4.0×10^4 cells were suspended in a serum-free medium and seeded in the upper chamber of a Matrigel Invasion Chamber (24-well plate, pore size: 8 μm, manufactured by Becton, Dickinson, and Company). A solvent containing 5% fetal bovine serum was added to the lower chamber. After the cells were incubated in the upper chamber for 20 hours, three independent areas were observed under a microscope, and the cells invading the lower chamber were counted. The same experiment was repeated three times, and the cell invasion ability of 52-013 cells into which each siRNA was taken up was compared.
The “*” denotes a significant difference at P<0.05 as compared to the control in the t-test.
Each of the scrambled control siRNA (SEQ ID NOs: 3 and 4), SNORA18 siRNA (SEQ ID NOs: 21 and 22), NUP85 siRNA (SEQ ID NOs: 23 and 24), WASF2 siRNA (SEQ ID NOs: 25 and 26), and SNORA22 siRNA (SEQ ID NOs: 27 and 28) was added with 2 equivalents of Dab8, Fol-Dab8A, or Fol-Dab8B to the culture solution of pancreatic cancer cell line S2-013 in culture. As a control, each of the control siRNA, SNORA18 siRNA, NUP85 siRNA, WASF2 siRNA, and SNORA22 siRNA was added alone to the culture solution of the S2-013 cells.
After 48 hours of culture, the Matrigel invasion assay was performed. In the Matrigel invasion assay, the number of cells that have migrated from the upper chamber to the lower chamber is shown. The “*” denotes a significant difference at P<0.05 as compared to the control in the t-test.

[1] = tested on: S2-013 pancreatic cancer cells; assay: Lysosome (LysoTracker) and siRNA staining, confocal microscopy; format: cell-based, human; conditions: chemically-modified Alexa488-labeled siRNA with Fol-Dab8A or Fol-Dab8B, 2 equivalents, overnight

Substance | cell invasion (S2-013 cells) | intracellular localization of siRNA [1]
NUP85 siRNA: double-stranded siRNA against NUP85, SEQ ID NOs: 7 and 8 (Table 2) (chain 1 CAGCGGCAGAUGACUGAACAA; chain 2 UUGUUCAGUCAUCUGCCGCUG; listed as RNA, chemistry not given here) | significantly suppressed | 
SNORA18 siRNA: double-stranded siRNA against SNORA18, SEQ ID NOs: 5 and 6 (Table 2) (chain 1 UUUACUUUACUCACAGGACUA; chain 2 UAGUCCUGUGAGUAAAGUAAA; listed as RNA, chemistry not given here) | significantly suppressed | 
SNORA22 siRNA: double-stranded siRNA against SNORA22, SEQ ID NOs: 11 and 12 (Table 2) (chain 1 CUUGGCUUUGACCCUGUGCUA; chain 2 UAGCACAGGGUCAAAGCCAAG; chemistry not given here) | significantly suppressed | localized in lysosomes
WASF2 siRNA: double-stranded siRNA against WASF2, SEQ ID NOs: 9 and 10 (Table 2) (chain 1 UAGGAUUAGAUCAUUAGCUCA; chain 2 UGAGCUAAUGAUCUAAUCCUA; listed as RNA, chemistry not given here) | significantly suppressed | 
